Results reported in US9615503B2, “Method for cultivating sugar cane” (BASF SE, priority 2011, dated 2017).

Test system: sugar cane bud discs
Experiment: Survival of sugar cane seedlings grown from treated bud discs (greenhouse, then acclimatization)
Assay type: in vivo
Settings: for Number of surviving seedlings: of 648 planted buds per treatment, bud discs immersed 10 seconds in aqueous solution (pyraclostrobin 1 g/l, fipronil 0.8 g/l, fluxapyroxade 1.2 g/l, thiamethoxam 1.5 g/l), counted after 30 to 45 days greenhouse plus 15 days acclimatization, untreated 211; for Increase of survival rate [%]: relative to untreated buds (211 of 648 surviving), same treatment and concentrations as the number of surviving seedlings
Source text: On an area of 0.1 hectares where sugar cane plants were growing with a distance between the rows of 1.5 m, the top part of the 8 months old sugar cane plants was removed by chopping off with a machete in a height of approximately 2 to 2.5 m. The removed top part was discarded. The below, remaining stalks were removed from the field by cutting them off closely above the ground. The stalks were then cut longitudinally into halves in such a manner that the buds were approximately centralized on the halves. From the stalk halves discs of ca. 2 cm of diameter each containing a bud and a part of the respective node were punched off with a punching machine. For each treatment, 648 bud discs were immersed for 10 seconds into an aqueous solution containing either pyraclostrobin (1 g/l; used as the commercial product Comet® of a concentration of 250 g/l of pyraclostrobin) or fipronil (0.8 g/l; used as the commercial product Regent® of a concentration of 800 g/kg of fipronil) or fluxapyroxade (1.2 g/l; used as the commercial product BAS 700 04F of a concentration of 300 g/l) or thiamethoxam (1.5 g/l; used as the commercial product Actara® 250 WG of a concentration of […]). The treated buds were then each placed in individual pots filled with humid coconut fibers. 648 bud discs stayed untreated for comparative reasons and were directly placed in individual pots filled with humid coconut fibers. The pots were placed in a greenhouse, and seedlings were grown from the planted bud discs at 25 to 35° C. and 70 to 80% humidity. While in the greenhouse, the buds/seedlings were watered sufficiently. 30 to 45 days after having been placed in the greenhouse, the surviving seedlings were transferred in an acclimatization area and kept for 15 days. Thereafter they were counted and then transplanted to a field.

SMILES | Number of surviving seedlings | Increase of survival rate [%]
N#Cc1nn(-c2c(Cl)cc(C(F)(F)F)cc2Cl)c(N)c1[S+]([O-])C(F)(F)F (centres unmarked) [Fipronil, fipronil] | 236 | 11.8
Cn1cc(C(=O)Nc2ccccc2-c2cc(F)c(F)c(F)c2)c(C(F)F)n1 [Fluxapyroxade, N-(3′,4′,5′-trifluorobiphenyl-2-yl)-3-difluoromethyl-1-methyl-1H-pyrazole-4-carboxamide] | 248 | 17.5
COC(=O)N(OC)c1ccccc1COc1ccn(-c2ccc(Cl)cc2)n1 [Pyraclostrobin, pyraclostrobin] | 391 | 85.3
CN1COCN(Cc2cnc(Cl)s2)/C1=N\[N+](=O)[O-] [Thiamethoxam, thiamethoxam] | 225 | 6.6
